Assays:
Test in all cases: relative viability (nuclei count vs DMSO), 5 days (fraction); higher = more cells survive
Doramapimod + Linsitinib = compound: Cc1ccc(-n2nc(C(C)(C)C)cc2NC(=O)Nc2ccc(OCCN3CCOCC3)c3ccccc23)cc1 [Doramapimod] + C[C@]1(O)C[C@@H](c2nc(-c3ccc4ccc(-c5ccccc5)nc4c3)c3c(N)nccn32)C1 [Linsitinib] (partner 1 µM)
Procedure, shortened: (§1)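 One day after seeding in 1536-well plates, lung cancer cell lines were dosed by pin tool. Dosing was either single-drug or a fixed anchor-drug dose plus five library-drug doses (not always all listed) in √10 steps. After 5 days, nuclei were stained in one fix-and-stain step and counted on 4× images, and relative viability is the nuclei count of treated wells over that of vehicle wells, given as the median of duplicate plates.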

RAF265 + Luminespib = compound: Cn1c(Nc2ccc(C(F)(F)F)cc2)nc2cc(Oc3ccnc(-c4ncc(C(F)(F)F)[nH]4)c3)ccc21 [RAF265] + CCNC(=O)c1noc(-c2cc(C(C)C)c(O)cc2O)c1-c1ccc(CN2CCOCC2)cc1 [Luminespib] (partner 0.01 µM)
Procedure, shortened: as §1

RAF265 + OSI-027 = compound: Cn1c(Nc2ccc(C(F)(F)F)cc2)nc2cc(Oc3ccnc(-c4ncc(C(F)(F)F)[nH]4)c3)ccc21 [RAF265] + COc1cccc2cc(-c3nc([C@H]4CC[C@H](C(=O)O)CC4)n4ncnc(N)c34)[nH]c12 [OSI-027] (partner 0.5 µM)
Procedure, shortened: as §1

RAF265 + Pemetrexed = compound: Cn1c(Nc2ccc(C(F)(F)F)cc2)nc2cc(Oc3ccnc(-c4ncc(C(F)(F)F)[nH]4)c3)ccc21 [RAF265] + Nc1nc2[nH]cc(CCc3ccc(C(=O)N[C@@H](CCC(=O)O)C(=O)O)cc3)c2c(=O)[nH]1 [Pemetrexed] (partner 0.2 µM)
Procedure, shortened: as §1

Cell Line	relative viability (Doramapimod + Linsitinib; first compound 0.02 µM)	relative viability (Doramapimod + Linsitinib; first compound 0.06325 µM)	relative viability (Doramapimod + Linsitinib; first compound 0.2 µM)	relative viability (Doramapimod + Linsitinib; first compound 0.6325 µM)	relative viability (Doramapimod + Linsitinib; first compound 2 µM)	relative viability (RAF265 + Luminespib; first compound 0.01 µM)	relative viability (RAF265 + Luminespib; first compound 0.03162 µM)	relative viability (RAF265 + Luminespib; first compound 0.1 µM)	relative viability (RAF265 + Luminespib; first compound 0.3162 µM)	relative viability (RAF265 + Luminespib; first compound 1 µM)	relative viability (RAF265 + OSI-027; first compound 0.01 µM)	relative viability (RAF265 + OSI-027; first compound 0.03162 µM)	relative viability (RAF265 + OSI-027; first compound 0.1 µM)	relative viability (RAF265 + OSI-027; first compound 0.3162 µM)	relative viability (RAF265 + OSI-027; first compound 1 µM)	relative viability (RAF265 + Pemetrexed; first compound 0.01 µM)	relative viability (RAF265 + Pemetrexed; first compound 0.03162 µM)	relative viability (RAF265 + Pemetrexed; first compound 0.1 µM)	relative viability (RAF265 + Pemetrexed; first compound 0.3162 µM)	relative viability (RAF265 + Pemetrexed; first compound 1 µM)
201T	1.05	1.07	0.971	1.03	0.958	1.07	0.972	1.03	0.995	0.997	0.794	0.799	0.788	0.58	0.351	0.352	0.316	0.344	0.311	0.313
A549	0.551	0.532	0.567	0.794	0.523															
A-427	1.17	1.21	1.24		1.16	0.691	0.821	1.16	0.631	0.226	0.4	0.334	0.312	0.18	0.129	1.06	0.939	1.03	0.678	0.468
ABC-1	0.876	0.944	0.744	0.942	0.806	0.656	0.823	0.75	0.519	0.265	0.39	0.48	0.365	0.408	0.31					
BEN	0.834	0.893	0.906	0.769	0.854	0.402	0.491	0.534	0.224	0.325	0.261	0.29	0.312	0.311	0.293	0.795	0.835	0.99	0.798	0.692
CAL-12T	0.806	0.804	0.745	0.851	0.627	0.238	0.426	0.341	0.491	0.0919	0.633	0.45	0.313	0.281	0.327	1.21	0.925	1.13	0.978	0.661
COR-L23	0.962	0.917	0.827	0.933	0.931	0.637	0.655	0.539	0.33	0.324	0.843	0.723	0.501	0.278	0.168	0.188	0.206	0.202	0.182	0.184
COR-L 105	0.968	0.94	0.853	1.01	0.735	0.826	0.821	0.666	0.766	0.385	0.798	0.676	0.608	0.315	0.43	1.27	0.941	1.31	0.714	0.685
Calu-6	1.02	0.978	0.942	1.04	0.966															
ChaGo-K-1						0.722	0.666	0.575	0.545	0.396	0.563	0.628	0.5	0.44	0.38	0.262	0.273	0.248	0.262	0.325
EBC-1	0.924	0.811	0.826	0.937	0.817															
EKVX	1.03	0.972	0.902	1.15	0.95	0.837	0.918	0.984	0.598	0.791	0.689	0.666	0.744	0.483	0.534	0.373	0.44	0.456	0.255	0.358
EMC-BAC-2	0.793	0.821	0.789	0.86	0.834	1.2	0.998	1.01	0.819	0.357	0.375	0.342	0.219	0.232	0.134	0.432	0.406	0.427	0.347	0.258
EPLC-272H	1.1	1.02	1.07	1.23	1.01	0.169	0.224	0.333	0.138	0.177	0.251	0.288	0.237	0.218	0.184	0.327	0.319	0.406	0.213	0.177
H3255	1.02	0.908	0.913	0.97	0.871	0.767	0.876	0.953		0.634	0.741	0.601	0.563		0.473	0.569	0.609	0.54		0.569
HARA	0.943	0.901	0.904	0.987	0.805	0.64	0.627	0.476	0.509	0.165	0.491	0.417	0.423	0.187	0.101	0.269	0.275	0.239	0.218	0.259
HCC-15	0.846	0.863	0.889	0.944	0.806	0.27	0.229	0.388	0.159	0.173	0.674	0.605	0.566	0.26	0.304	0.232	0.232	0.231	0.235	0.23
HCC-44	0.662	0.669	0.675	0.634	0.626	1.17	0.986	1.06	1.05	1.05	0.735	0.479	0.636	0.449	0.477	0.647	0.597	0.655	0.622	0.653
HCC-78	0.399	0.429	0.466	0.527	0.514						0.35	0.424	0.396	0.346	0.341	0.906	0.844	0.884	0.881	0.898
HCC-366	0.561	0.515	0.475	0.673	0.548						1.04	0.939	0.834	0.165	0.107	0.153	0.146	0.185	0.208	0.132

Cell Line	relative viability (Doramapimod + Linsitinib; first compound 0.02 µM)	relative viability (Doramapimod + Linsitinib; first compound 0.06325 µM)	relative viability (Doramapimod + Linsitinib; first compound 0.2 µM)	relative viability (Doramapimod + Linsitinib; first compound 0.6325 µM)	relative viability (Doramapimod + Linsitinib; first compound 2 µM)	relative viability (RAF265 + Luminespib; first compound 0.01 µM)	relative viability (RAF265 + Luminespib; first compound 0.03162 µM)	relative viability (RAF265 + Luminespib; first compound 0.1 µM)	relative viability (RAF265 + Luminespib; first compound 0.3162 µM)	relative viability (RAF265 + Luminespib; first compound 1 µM)	relative viability (RAF265 + OSI-027; first compound 0.01 µM)	relative viability (RAF265 + OSI-027; first compound 0.03162 µM)	relative viability (RAF265 + OSI-027; first compound 0.1 µM)	relative viability (RAF265 + OSI-027; first compound 0.3162 µM)	relative viability (RAF265 + OSI-027; first compound 1 µM)	relative viability (RAF265 + Pemetrexed; first compound 0.01 µM)	relative viability (RAF265 + Pemetrexed; first compound 0.03162 µM)	relative viability (RAF265 + Pemetrexed; first compound 0.1 µM)	relative viability (RAF265 + Pemetrexed; first compound 0.3162 µM)	relative viability (RAF265 + Pemetrexed; first compound 1 µM)
HCC-827	1	0.918	0.952	0.933	0.752	0.837	0.652	0.74		0.132	0.754	0.783	0.708		0.649	0.281	0.24	0.214		0.278
HOP-62	0.88	1	1.17	0.91	0.992	0.988	0.879	0.93	0.774	0.688	0.807	0.774	0.698	0.731	0.631	0.261	0.306	0.267	0.246	0.245
IA-LM	0.498	0.549	0.701	0.587	0.731															
LC-2-ad	0.856	0.802	0.95	0.88	0.684	1.31	1.05	1.14	0.692	0.672	0.969	0.798	0.902	0.442	0.378	0.275	0.3	0.288	0.292	0.258
LCLC-97TM1	0.181	0.169	0.161	0.191	0.17	0.819	0.67	0.632	0.309	0.306	0.516	0.328	0.215	0.416	0.0767	0.145	0.155	0.149	0.153	0.128
LCLC-103H	0.99	1.06	1.09	1.09	1.03	0.798	0.804	0.789	0.739	0.39	0.466	0.439	0.464	0.443	0.308	0.496	0.423	0.476	0.459	0.429
LK-2	0.284	0.388	0.348	0.42	0.22	0.172	0.227	0.196	0.236	0.191	0.212	0.202	0.176	0.177	0.203	0.237	0.352	0.188	0.244	0.215
LOU-NH91	0.967	0.91	0.972	1.06	0.686	0.349	0.323	0.373	0.349	0.328	0.703	0.653	0.737	0.45	0.486	0.365	0.336	0.427	0.419	0.441
LU99A	0.504	0.535	0.47	0.503	0.457	0.262	0.194	0.229	0.182	0.202	0.299	0.274	0.27	0.258	0.205	0.199	0.186	0.161	0.177	0.241
LXF-289	0.961	0.92	0.896	0.933	0.939	0.736	0.6	0.699	0.534	0.357	0.836	0.813	0.59	0.326	0.2	0.95	0.841	0.917	0.776	0.764
NCI-H522						0.984	1.26	1.27		0.957	0.79	0.741	0.655	0.541	0.628	0.922	1.15	1.09	1.13	1
NCI-H727	0.166	0.221	0.366	0.317	0.278	0.332	0.345	0.6	0.383	0.263	0.7	0.8	0.487	0.438	0.347					
NCI-H1299	1	1.04	1.01	1.06	0.985															
NCI-H1623						0.608	0.48	0.63		0.33	0.462	0.43	0.467	0.291	0.364					
NCI-H1648											0.266	0.298	0.277	0.3	0.246	0.758	0.66	0.771	1.02	0.65
NCI-H1650						0.176	0.208	0.192	0.205	0.216	0.631	0.598	0.8	0.456	0.649	0.336	0.362	0.431	0.324	0.369
NCI-H1703	0.637	0.601	0.68	0.908	0.532															
NCI-H2170						0.791	0.658	0.688	0.254	0.381	0.74	0.512	0.623	0.333	0.452	0.245	0.258	0.263	0.261	0.251
NCI-H2342						0.713	0.68	0.685	0.577	0.519	0.598	0.722	0.598	0.525	0.514	0.809	0.818	0.782	0.803	0.788
SW 900						0.204	0.182	0.169	0.154	0.145	0.569	0.661	0.464	0.378	0.391	0.486	0.512	0.512	0.488	0.254
